Measured values published in ChEMBL document CHEMBL6134852, “Electrostatic Anchoring in RNA-Ligand Design─Dissecting the Effects of Positive Charges on Affinity, Selectivity, Binding Kinetics, and Thermodynamics” (J Med Chem, 2025).

How the values were obtained:
[1] = tested on: PreQ1 riboswitch; test: Binding affinity to Tte preQ1 riboswitch assessed as change in Gibb's free energy by ITC analysis; type: nucleic-acid assay; conditions: Caldanaerobacter subterraneus; subsp. tengcongensis
[2] = tested on: PreQ1 riboswitch; test: Binding affinity to SA sensor chip-immobilized Tte preQ1 riboswitch aptamer assessed as binding constant (Koff) by SPR analysis; type: nucleic-acid assay; conditions: Caldanaerobacter subterraneus; subsp. tengcongensis
[3] = tested on: PreQ1 riboswitch; test: Binding affinity to SA sensor chip-immobilized Tte preQ1 riboswitch aptamer assessed as binding constant (Kon) by SPR analysis; type: nucleic-acid assay; conditions: Caldanaerobacter subterraneus; subsp. tengcongensis
[4] = tested on: PreQ1 riboswitch; test: Binding affinity to Tte preQ1 riboswitch aptamer assessed as binding constant (Kon) by ITC analysis; type: nucleic-acid assay; conditions: Caldanaerobacter subterraneus; subsp. tengcongensis
[5] = tested on: PreQ1 riboswitch; test: Binding affinity to Tte preQ1 riboswitch aptamer assessed as change in entropy by ITC analysis; type: nucleic-acid assay; conditions: Caldanaerobacter subterraneus; subsp. tengcongensis
[6] = target: PreQ1 riboswitch; test: Binding affinity to Tte preQ1 riboswitch aptamer assessed as dissociation constant by MST analysis; type: nucleic-acid assay, Caldanaerobacter subterraneus, subsp. tengcongensis
[7] = target: PreQ1 riboswitch; test: Binding affinity to Tte preQ1 riboswitch aptamer assessed as dissociation constant by ITC analysis; type: nucleic-acid assay, Caldanaerobacter subterraneus, subsp. tengcongensis
[8] = target: PreQ1 riboswitch; test: Binding affinity to SA sensor chip-immobilized Tte preQ1 riboswitch aptamer assessed as dissociation constant by SPR steady-state analysis; type: nucleic-acid assay, Caldanaerobacter subterraneus, subsp. tengcongensis
[9] = tested on: PreQ1 riboswitch; test: Binding affinity to Tte preQ1 riboswitch aptamer assessed as change in enthalpy by ITC analysis; type: nucleic-acid assay; conditions: Caldanaerobacter subterraneus; subsp. tengcongensis
[10] = tested on: PreQ1 riboswitch; test: Binding affinity to Tte preQ1 riboswitch aptamer assessed as binding constant (Koff) by ITC analysis; type: nucleic-acid assay; conditions: Caldanaerobacter subterraneus; subsp. tengcongensis
[11] = target: PreQ1 riboswitch; test: Binding affinity to SA sensor chip-immobilized Tte preQ1 riboswitch aptamer assessed as dissociation constant by SPR analysis; type: nucleic-acid assay, Caldanaerobacter subterraneus, subsp. tengcongensis
[12] = tested on: S-adenosylmethionine-VI riboswitch; test: Binding affinity to Bifidobacterium angulatum SAM-VI riboswitch assessed as assessed as binding constant (Kon) by ITC analysis; type: nucleic-acid assay
[13] = target: S-adenosylmethionine-VI riboswitch; test: Binding affinity to Bifidobacterium angulatum SAM-VI riboswitch assessed as dissociation constant by ITC analysis; type: nucleic-acid assay
[14] = target: Precursor microRNA-372; test: Binding affinity to pre-miRNA-372 beacon (unknown origin) assessed as dissociation constant measured after 4 hrs by fluorescence based analysis; type: nucleic-acid assay
[15] = tested on: Ribozyme; test: Binding affinity to Tetrahymena group I ribozyme (unknown origin) assessed as binding constant (Koff); type: nucleic-acid assay
[16] = tested on: Ribozyme; test: Binding affinity to Tetrahymena group I ribozyme (unknown origin) assessed as binding constant (Kon); type: nucleic-acid assay
[17] = target: Ribozyme; test: Binding affinity to Tetrahymena group I ribozyme (unknown origin) assessed as dissociation constant; type: nucleic-acid assay
[18] = target: PreQ1 riboswitch; test: Binding affinity to Alexa Fluor 647-labeled Tte preQ1 riboswitch assessed as dissociation constant by fluorescence based analysis; type: nucleic-acid assay, Caldanaerobacter subterraneus, subsp. tengcongensis
[19] = target: TAR RNA; test: Binding affinity to Alexa Fluor 488-labeled HIV-1 TAR RNA assessed as dissociation constant by fluorescence based analysis; type: nucleic-acid assay, Human immunodeficiency virus 1
[20] = target: S-adenosylmethionine-VI riboswitch; test: Binding affinity to SA sensor chip-immobilized Bifidobacterium angulatum SAM-VI riboswitch aptamer assessed as dissociation constant by SPR steady-state analysis; type: nucleic-acid assay
[21] = target: S-adenosylmethionine-VI riboswitch; test: Binding affinity to SA sensor chip-immobilized Bifidobacterium angulatum SAM-VI riboswitch aptamer assessed as dissociation constant by SPR analysis; type: nucleic-acid assay
[22] = tested on: S-adenosylmethionine-VI riboswitch; test: Binding affinity to SA sensor chip-immobilized Bifidobacterium angulatum SAM-VI riboswitch aptamer assessed as binding constant (Koff) by SPR analysis; type: nucleic-acid assay
[23] = tested on: S-adenosylmethionine-VI riboswitch; test: Binding affinity to SA sensor chip-immobilized Bifidobacterium angulatum SAM-VI riboswitch aptamer assessed as binding constant (Kon) by SPR analysis; type: nucleic-acid assay

With `Nc1ncnc2c1ncn2[C@@H]1O[C@H](CNCC[C@H](N)C(=O)O)[C@@H](O)[C@H]1O` the deltaG [1] was -7.48 kcal/mol, the koff [2] was 0.0361 s⁻¹ and the K [3] was 2.94 10^3/Ms. For the same compound, the K [4] was 1.54 10^4/M/s, the -TdeltaS [5] was 15.3 kcal/mol and the Kd [6] was 33.3 µM. For the same compound, the Kd [7] was 3.31 µM, the Kd [8] was 20.7 µM and the deltaH [9] was -22.8 kcal/mol. For the same compound, the K [10] was 4.66 10^-2/s and the Kd [11] was 12.3 µM.
`Nc1ncnc2c1ncn2[C@@H]1O[C@H](CSCC[C@H](N)C(=O)O)[C@@H](O)[C@H]1O` [S-ADENOSYLHOMOCYSTEINE] was tested, and the deltaG [1] was -6.64 kcal/mol, the koff [2] was 0.054 s⁻¹ and the K [3] was 3.88 10^2/Ms. The K [4] was 3.57 10^3/M/s, the -TdeltaS [5] was 1.63 kcal/mol and the Kd [6] was 34.4 µM. For the same compound, the Kd [7] was 14 µM, the K [12] was 5.5 10^3/M/s and the Kd [8] was 121 µM. For the same compound, the deltaH [9] was -8.27 kcal/mol, the K [10] was 4.58 10^-2/s and the Kd [11] was 150 µM. For the same compound, the Kd [13] was 10.9 µM.
With `CC(=O)Nc1csc(-c2cccc(NC(=O)CCc3cn(C[C@H]4O[C@@H](O[C@@H]5[C@@H](O)[C@H](N)C[C@H](N)[C@H]5O[C@H]5O[C@H](CN)[C@@H](O)[C@H](O)[C@H]5N)[C@H](O)[C@@H]4O[C@H]4O[C@@H](CN)[C@@H](O)[C@H](O)[C@H]4N)nn3)c2)n1` the Kd [14] was 0.016 µM.
`NC[C@@H]1O[C@H](O[C@H]2[C@@H](O)[C@H](O[C@@H]3[C@@H](O)[C@H](N)C[C@H](N)[C@H]3O[C@H]3O[C@H](CN)[C@@H](O)[C@H](O)[C@H]3N)O[C@@H]2CO)[C@H](N)[C@@H](O)[C@@H]1O` [FRAMYCETIN] was tested, and the Kd [14] was 7.4 µM.
`Nc1nc2c(ncn2[C@@H]2O[C@H](CO)[C@@H](O)[C@H]2O)c(=O)[nH]1` [GUANOSINE] was tested, and the K [15] was 44 min⁻¹, the K [16] was 4 10^5/M/min and the Kd [17] was 110 µM.
For `NCCOc1ccc2oc3ccccc3c2c1`, the Kd [18] was 0.5 µM.
`CC(=O)Nc1nc(-c2cccc(NC(=O)[C@H]3C[C@H](OC(=O)[C@@H](N)CCCN)[C@@H](COC(=O)[C@@H](N)CCCCN)O3)c2)cs1` gave a Kd [19] of 8 µM.
`C[S+](CC[C@H](N)C(=O)[O-])C[C@H]1O[C@@H](n2cnc3c(N)ncnc32)[C@H](O)[C@@H]1O` (stereo partly specified) [ADEMETIONINE] was tested, and the deltaG [1] was -8.44 kcal/mol, the K [3] was 2.98 10^3/Ms and the K [4] was 2.13 10^4/M/s. For the same compound, the -TdeltaS [5] was 6.09 kcal/mol, the Kd [6] was 0.718 µM and the Kd [7] was 0.671 µM. The K [12] was 2.46 10^4/M/s, the Kd [8] was 4.53 µM and the deltaH [9] was -14.5 kcal/mol. For the same compound, the K [10] was 1.42 10^-2/s, the Kd [11] was 3.72 µM and the Kd [13] was 0.33 µM.
In the case of `NCCCNC[C@H]1O[C@@H](n2cnc3c(N)ncnc32)[C@H](O)[C@@H]1O`, the deltaG [1] is reported as -7.89 kcal/mol, the koff [2] is reported as 0.0481 s⁻¹ and the K [3] is reported as 1.28 10^4/Ms. The K [4] was 1.36 10^4/M/s, the -TdeltaS [5] was 13 kcal/mol and the Kd [6] was 9.75 µM. For the same compound, the Kd [7] was 1.73 µM, the Kd [20] was 6.05 µM and the Kd [8] was 15.9 µM. For the same compound, the deltaH [9] was -20.9 kcal/mol, the K [10] was 2.38 10^-2/s and the Kd [21] was 3.1 µM. For the same compound, the K [22] was 4.59 10^-2/s, the K [23] was 1.48 10^4/M/s and the Kd [11] was 4.17 µM.
`Nc1nc2c(ncn2[C@H]2C[C@H](N)[C@@H](CO)O2)c(=O)[nH]1` was tested, and the K [15] was greater than 2 min⁻¹, the K [16] was > 2.1 10^7/M/min and the Kd [17] was 0.094 µM.
